In the NIST ThermoML archive (doi:10.1016/j.jct.2012.03.003):

Test: xn = mol fraction of the nth substance listed
Conditions: Liquid, Vibrating tube method

COc1cc2c(cc1O)CC1c3c(cc(O)c(OC)c3-2)CCN1C (stereo not given) [boldine] + CCCO
Conditions	mass density [kg/m3]
352.94 K, 17000 kPa, x1 = 0.0142	793.21
352.94 K, 18000 kPa, x1 = 0.0018	773.13
352.94 K, 18000 kPa, x1 = 0.0112	789.5
352.94 K, 18000 kPa, x1 = 0.0142	794.1
352.94 K, 19000 kPa, x1 = 0.0018	774.01
352.94 K, 19000 kPa, x1 = 0.0112	790.38
352.94 K, 19000 kPa, x1 = 0.0142	794.97
352.94 K, 20000 kPa, x1 = 0.0018	774.9
352.94 K, 20000 kPa, x1 = 0.0112	791.19
352.94 K, 20000 kPa, x1 = 0.0142	795.82
352.95 K, 1000 kPa, x1 = 0.0046	762.42
352.95 K, 1000 kPa, x1 = 0.0077	766.39
352.95 K, 2000 kPa, x1 = 0.0046	763.47
352.95 K, 2000 kPa, x1 = 0.0077	767.42
352.95 K, 3000 kPa, x1 = 0.0046	764.53
352.95 K, 3000 kPa, x1 = 0.0077	768.43
352.95 K, 4000 kPa, x1 = 0.0046	765.57
352.95 K, 4000 kPa, x1 = 0.0077	769.48
352.95 K, 5000 kPa, x1 = 0.0046	766.6
352.95 K, 5000 kPa, x1 = 0.0077	770.53
352.95 K, 6000 kPa, x1 = 0.0046	767.63
352.95 K, 6000 kPa, x1 = 0.0077	771.55
352.95 K, 7000 kPa, x1 = 0.0046	768.64
352.95 K, 7000 kPa, x1 = 0.0077	772.55
352.95 K, 8000 kPa, x1 = 0.0046	769.68
352.95 K, 8000 kPa, x1 = 0.0077	773.58
352.95 K, 9000 kPa, x1 = 0.0046	770.67
352.95 K, 9000 kPa, x1 = 0.0077	774.57
352.95 K, 10000 kPa, x1 = 0.0046	771.67
352.95 K, 10000 kPa, x1 = 0.0077	775.56
352.95 K, 11000 kPa, x1 = 0.0046	772.65
352.95 K, 11000 kPa, x1 = 0.0077	776.53
352.95 K, 12000 kPa, x1 = 0.0046	773.64
352.95 K, 12000 kPa, x1 = 0.0077	777.51
352.95 K, 13000 kPa, x1 = 0.0046	774.6
352.95 K, 13000 kPa, x1 = 0.0077	778.48
352.95 K, 14000 kPa, x1 = 0.0046	775.56
352.95 K, 14000 kPa, x1 = 0.0077	779.42
352.95 K, 15000 kPa, x1 = 0.0046	776.52
352.95 K, 15000 kPa, x1 = 0.0077	780.35
352.95 K, 16000 kPa, x1 = 0.0046	777.42
352.95 K, 16000 kPa, x1 = 0.0077	781.26
352.95 K, 17000 kPa, x1 = 0.0046	778.33
352.95 K, 17000 kPa, x1 = 0.0077	782.19
352.95 K, 18000 kPa, x1 = 0.0046	779.23
352.95 K, 18000 kPa, x1 = 0.0077	783.07
352.95 K, 19000 kPa, x1 = 0.0046	780.13
352.95 K, 19000 kPa, x1 = 0.0077	783.97
352.95 K, 20000 kPa, x1 = 0.0046	780.98
352.95 K, 20000 kPa, x1 = 0.0077	784.83
362.91 K, 1000 kPa, x1 = 0.0142	768.06
362.91 K, 2000 kPa, x1 = 0.0142	769.19
362.91 K, 3000 kPa, x1 = 0.0142	770.27
362.91 K, 4000 kPa, x1 = 0.0142	771.41
362.91 K, 5000 kPa, x1 = 0.0142	772.43
362.91 K, 6000 kPa, x1 = 0.0142	773.54
362.91 K, 7000 kPa, x1 = 0.0142	774.62
362.91 K, 8000 kPa, x1 = 0.0142	775.73
362.91 K, 9000 kPa, x1 = 0.0142	776.73
362.91 K, 10000 kPa, x1 = 0.0142	777.77
362.91 K, 11000 kPa, x1 = 0.0142	778.78
362.91 K, 12000 kPa, x1 = 0.0142	779.82
362.91 K, 13000 kPa, x1 = 0.0142	780.81
362.91 K, 14000 kPa, x1 = 0.0142	781.79
362.91 K, 15000 kPa, x1 = 0.0142	782.77
362.91 K, 16000 kPa, x1 = 0.0142	783.72
362.91 K, 17000 kPa, x1 = 0.0142	784.68
362.91 K, 18000 kPa, x1 = 0.0142	785.6
362.91 K, 19000 kPa, x1 = 0.0142	786.52
362.91 K, 20000 kPa, x1 = 0.0142	787.4
362.92 K, 1000 kPa, x1 = 0.0046	752.84
362.92 K, 1000 kPa, x1 = 0.0077	756.81
362.92 K, 2000 kPa, x1 = 0.0046	753.97
362.92 K, 2000 kPa, x1 = 0.0077	757.93
362.92 K, 3000 kPa, x1 = 0.0046	755.11
362.92 K, 3000 kPa, x1 = 0.0077	759.06
362.92 K, 4000 kPa, x1 = 0.0046	756.24
362.92 K, 4000 kPa, x1 = 0.0077	760.16
362.92 K, 5000 kPa, x1 = 0.0046	757.34
362.92 K, 5000 kPa, x1 = 0.0077	761.28
362.92 K, 6000 kPa, x1 = 0.0046	758.46
362.92 K, 6000 kPa, x1 = 0.0077	762.37
362.92 K, 7000 kPa, x1 = 0.0046	759.55
362.92 K, 7000 kPa, x1 = 0.0077	763.46
362.92 K, 8000 kPa, x1 = 0.0046	760.63
362.92 K, 8000 kPa, x1 = 0.0077	764.54
362.92 K, 9000 kPa, x1 = 0.0046	761.7
362.92 K, 9000 kPa, x1 = 0.0077	765.61
362.92 K, 10000 kPa, x1 = 0.0046	762.78
362.92 K, 10000 kPa, x1 = 0.0077	766.65
362.92 K, 11000 kPa, x1 = 0.0046	763.79
362.92 K, 11000 kPa, x1 = 0.0077	767.68
362.92 K, 12000 kPa, x1 = 0.0046	764.85
362.92 K, 12000 kPa, x1 = 0.0077	768.72
362.92 K, 13000 kPa, x1 = 0.0046	765.87
362.92 K, 13000 kPa, x1 = 0.0077	769.74
362.92 K, 14000 kPa, x1 = 0.0046	766.88
362.92 K, 14000 kPa, x1 = 0.0077	770.74
362.92 K, 15000 kPa, x1 = 0.0046	767.86
362.92 K, 15000 kPa, x1 = 0.0077	771.74
362.92 K, 16000 kPa, x1 = 0.0046	768.85
362.92 K, 16000 kPa, x1 = 0.0077	772.72
362.92 K, 17000 kPa, x1 = 0.0046	769.81
362.92 K, 17000 kPa, x1 = 0.0077	773.68
362.92 K, 18000 kPa, x1 = 0.0046	770.76
362.92 K, 18000 kPa, x1 = 0.0077	774.6
362.92 K, 19000 kPa, x1 = 0.0046	771.7
362.92 K, 19000 kPa, x1 = 0.0077	775.55
362.92 K, 20000 kPa, x1 = 0.0046	772.56
362.92 K, 20000 kPa, x1 = 0.0077	776.45
362.93 K, 1000 kPa, x1 = 0.0112	763.51
362.93 K, 2000 kPa, x1 = 0.0112	764.63
362.93 K, 3000 kPa, x1 = 0.0112	765.74
362.93 K, 4000 kPa, x1 = 0.0112	766.83
362.93 K, 5000 kPa, x1 = 0.0112	767.93
362.93 K, 6000 kPa, x1 = 0.0112	769
362.93 K, 7000 kPa, x1 = 0.0112	770.08
362.93 K, 8000 kPa, x1 = 0.0112	771.14
362.93 K, 9000 kPa, x1 = 0.0112	772.39
362.93 K, 10000 kPa, x1 = 0.0112	773.24
362.93 K, 11000 kPa, x1 = 0.0112	774.29
362.93 K, 12000 kPa, x1 = 0.0112	775.28
362.93 K, 13000 kPa, x1 = 0.0112	776.29
362.93 K, 14000 kPa, x1 = 0.0112	777.28
362.93 K, 15000 kPa, x1 = 0.0112	778.25
362.93 K, 16000 kPa, x1 = 0.0112	779.21
362.93 K, 17000 kPa, x1 = 0.0112	780.16
362.93 K, 18000 kPa, x1 = 0.0112	781.11
362.93 K, 19000 kPa, x1 = 0.0112	782.03
362.93 K, 20000 kPa, x1 = 0.0112	782.93
362.94 K, 1000 kPa, x1 = 0.0018	746.61
362.94 K, 2000 kPa, x1 = 0.0018	747.75
362.94 K, 3000 kPa, x1 = 0.0018	748.91
362.94 K, 4000 kPa, x1 = 0.0018	750.05
362.94 K, 5000 kPa, x1 = 0.0018	751.17
362.94 K, 6000 kPa, x1 = 0.0018	752.28
362.94 K, 7000 kPa, x1 = 0.0018	753.38
362.94 K, 8000 kPa, x1 = 0.0018	754.49
362.94 K, 9000 kPa, x1 = 0.0018	755.54
362.94 K, 10000 kPa, x1 = 0.0018	756.62
362.94 K, 11000 kPa, x1 = 0.0018	757.69
362.94 K, 12000 kPa, x1 = 0.0018	758.72
362.94 K, 13000 kPa, x1 = 0.0018	759.77
362.94 K, 14000 kPa, x1 = 0.0018	760.8
362.94 K, 15000 kPa, x1 = 0.0018	761.77
362.94 K, 16000 kPa, x1 = 0.0018	762.79
362.94 K, 17000 kPa, x1 = 0.0018	763.76
362.94 K, 18000 kPa, x1 = 0.0018	764.68
362.94 K, 19000 kPa, x1 = 0.0018	765.63
362.94 K, 20000 kPa, x1 = 0.0018	766.58
